Test: xn = mol fraction of the nth substance listed
Conditions: 102.24 kPa, Liquid; for speed of sound: Frequency=5 MHz, Single path-length method; for mass density: Vibrating tube method

CCC(=O)[O-].C[NH2+]CCO [2-hydroxy-N-methylethanaminium propionate] + O
Conditions | mass density [kg/m3] | speed of sound [m/s]
298.15 K, x1 = 0.02 | 1016.8 | 1628.3
298.15 K, x1 = 0.0501 | 1039.1 | 1746.5
298.15 K, x1 = 0.1001 | 1056.2 | 1820.9
298.15 K, x1 = 0.101 | 1055.8 | 1818.1
298.15 K, x1 = 0.2006 | 1072.5 | 1827.2
298.15 K, x1 = 0.301 | 1072.6 | 1790.1
298.15 K, x1 = 0.3978 | 1074 | 1757
298.15 K, x1 = 0.4976 | 1072.3 | 1726.2
298.15 K, x1 = 0.5972 | 1071.9 | 1721
298.15 K, x1 = 0.8006 | 1068.7 | 1684.5
298.15 K, x1 = 1 | 1065.8 | 1638.4
303.15 K, x1 = 0.02 | 1013.4 | 1630.6
303.15 K, x1 = 0.0501 | 1036.3 | 1741.6
303.15 K, x1 = 0.1001 | 1053.4 | 1810.8
303.15 K, x1 = 0.101 | 1052.8 | 1807
303.15 K, x1 = 0.2006 | 1069.5 | 1812.4
303.15 K, x1 = 0.301 | 1069.5 | 1775.9
303.15 K, x1 = 0.3978 | 1070.9 | 1742.3
303.15 K, x1 = 0.4976 | 1069.2 | 1711
303.15 K, x1 = 0.5972 | 1068.7 | 1705.5
303.15 K, x1 = 0.8006 | 1065.4 | 1668.3
303.15 K, x1 = 1 | 1062.6 | 1624.6
308.15 K, x1 = 0.02 | 1010 | 1632.8
308.15 K, x1 = 0.0501 | 1033.5 | 1736.7
308.15 K, x1 = 0.1001 | 1050.7 | 1800.7
308.15 K, x1 = 0.101 | 1049.9 | 1795.9
308.15 K, x1 = 0.2006 | 1066.5 | 1797.6
308.15 K, x1 = 0.301 | 1066.4 | 1761.6
308.15 K, x1 = 0.3978 | 1067.9 | 1727.6
308.15 K, x1 = 0.4976 | 1066.1 | 1695.7
308.15 K, x1 = 0.5972 | 1065.6 | 1689.9
308.15 K, x1 = 0.8006 | 1062.2 | 1652
308.15 K, x1 = 1 | 1059.4 | 1607
313.15 K, x1 = 0.02 | 1006.6 | 1635.1
313.15 K, x1 = 0.0501 | 1030.6 | 1731.8
313.15 K, x1 = 0.1001 | 1047.9 | 1790.6
313.15 K, x1 = 0.101 | 1046.9 | 1784.7
313.15 K, x1 = 0.2006 | 1063.5 | 1782.8
313.15 K, x1 = 0.301 | 1063.3 | 1747.4
313.15 K, x1 = 0.3978 | 1064.8 | 1712.8
313.15 K, x1 = 0.4976 | 1063 | 1680.5
313.15 K, x1 = 0.5972 | 1062.5 | 1674.4
313.15 K, x1 = 0.8006 | 1059 | 1635.7
313.15 K, x1 = 1 | 1056.2 | 1588.5
318.15 K, x1 = 0.02 | 1003.2 | 1637.4
318.15 K, x1 = 0.0501 | 1027.8 | 1726.9
318.15 K, x1 = 0.1001 | 1045.2 | 1780.5
318.15 K, x1 = 0.101 | 1043.9 | 1773.6
318.15 K, x1 = 0.2006 | 1060.5 | 1768
318.15 K, x1 = 0.301 | 1060.2 | 1733.1
318.15 K, x1 = 0.3978 | 1061.8 | 1698.1
318.15 K, x1 = 0.4976 | 1059.8 | 1665.2
318.15 K, x1 = 0.5972 | 1059.4 | 1658.8
318.15 K, x1 = 0.8006 | 1055.8 | 1619.5
318.15 K, x1 = 1 | 1053 | 1573.2
323.15 K, x1 = 0.02 | 999.8 | 1639.6
323.15 K, x1 = 0.0501 | 1025 | 1722
323.15 K, x1 = 0.1001 | 1042.4 | 1770.4
323.15 K, x1 = 0.101 | 1040.9 | 1762.5
323.15 K, x1 = 0.2006 | 1057.5 | 1753.2
323.15 K, x1 = 0.301 | 1057.1 | 1718.9
323.15 K, x1 = 0.3978 | 1058.7 | 1683.3
323.15 K, x1 = 0.4976 | 1056.7 | 1650
323.15 K, x1 = 0.5972 | 1056.2 | 1643.3
323.15 K, x1 = 0.8006 | 1052.6 | 1603.2
323.15 K, x1 = 1 | 1049.8 | 1558.3
328.15 K, x1 = 0.02 | 996.4 | 1641.9
328.15 K, x1 = 0.0501 | 1022.2 | 1717.1
328.15 K, x1 = 0.1001 | 1039.7 | 1760.3
328.15 K, x1 = 0.101 | 1037.9 | 1751.4
328.15 K, x1 = 0.2006 | 1054.5 | 1738.3
328.15 K, x1 = 0.301 | 1054 | 1704.6
328.15 K, x1 = 0.3978 | 1055.6 | 1668.6
328.15 K, x1 = 0.4976 | 1053.6 | 1634.8
328.15 K, x1 = 0.5972 | 1053.1 | 1627.8
328.15 K, x1 = 0.8006 | 1049.3 | 1587
328.15 K, x1 = 1 | 1046.5 | 1543.7
333.15 K, x1 = 0.02 | 993 | 1644.1
333.15 K, x1 = 0.0501 | 1019.4 | 1712.2
333.15 K, x1 = 0.1001 | 1036.9 | 1750.3
333.15 K, x1 = 0.101 | 1035 | 1740.3
333.15 K, x1 = 0.2006 | 1051.5 | 1723.5
333.15 K, x1 = 0.301 | 1051 | 1690.4
333.15 K, x1 = 0.3978 | 1052.6 | 1653.9
333.15 K, x1 = 0.4976 | 1050.5 | 1619.5
333.15 K, x1 = 0.5972 | 1050 | 1612.2
333.15 K, x1 = 0.8006 | 1046.1 | 1570.7
333.15 K, x1 = 1 | 1043.2 | 1527

Source: the NIST ThermoML archive (doi:10.1016/j.jct.2015.04.005)
